Patent publication US11649231B2, “Compound as mTOR inhibitor and use thereof” (MEDICINAL BIOCONVERGENCE RESEARCH CENTER, priority 2018, dated 2023)

Key:
[1] = tested on: RagD; assay: RagD GTP hydrolysis inhibitory activity (GTP-agarose bead pulldown assay) in SW620 cells; assay type: cell-based; conditions: 10 μM for 1 hour, leucine restimulation 15 min
Procedure: GTP-agarose bead pulldown assay was performed to analyze RagD bound to GTP.
After washing the cells with cold PBS, cells were obtained in GTP-binding buffer (20 mM Tris-HCl, pH 7.5, 5 mM MgCl2, 2 mM PMSF, 20 μg/ml leupeptin, 10 μg/ml aprotinin, 150 mM NaCl, 1% Triton X-100, 1× phosphatase inhibitor cocktail). The cells were sonicated for 15 seconds to lyse, and the cell lysate was centrifuged at 4° C. for 10 minutes and at 13000×g to obtain a supernatant. The obtained protein solution (contained in 500 μl of GTP-binding buffer) was treated with 100 μl of GPT-agarose bead (Sigma Aldrich, Cat no. G9768) and left at 4° C. for 30 minutes. Thereafter, the beads were washed with GTP-binding buffer, and the supernatant was recovered. The washed beads in the recovered supernatant were once again treated for 30 minutes. The beads were washed again, and the recovered supernatant was left overnight at 4° C. After washing 5 times with GTP-binding buffer to separate contaminants that may have been included, the GTP-binding protein was analyzed by performing immunoblot analysis using anti-RagD or ARF1 antibody. ARF1 was used as a negative control.

[2] = molecular target: LRS and RagD (Homo sapiens (Human), UniProt Q9P2J5); assay: Inhibition of the interaction of LRS and RagD (immunoprecipitation) in SW620 cells; assay type: cell-based; conditions: 10 uM for 1 hour, leucine restimulation, anti-LRS or anti-RagD precipitate
Chain of LRS and RagD (Q9P2J5 whole entry): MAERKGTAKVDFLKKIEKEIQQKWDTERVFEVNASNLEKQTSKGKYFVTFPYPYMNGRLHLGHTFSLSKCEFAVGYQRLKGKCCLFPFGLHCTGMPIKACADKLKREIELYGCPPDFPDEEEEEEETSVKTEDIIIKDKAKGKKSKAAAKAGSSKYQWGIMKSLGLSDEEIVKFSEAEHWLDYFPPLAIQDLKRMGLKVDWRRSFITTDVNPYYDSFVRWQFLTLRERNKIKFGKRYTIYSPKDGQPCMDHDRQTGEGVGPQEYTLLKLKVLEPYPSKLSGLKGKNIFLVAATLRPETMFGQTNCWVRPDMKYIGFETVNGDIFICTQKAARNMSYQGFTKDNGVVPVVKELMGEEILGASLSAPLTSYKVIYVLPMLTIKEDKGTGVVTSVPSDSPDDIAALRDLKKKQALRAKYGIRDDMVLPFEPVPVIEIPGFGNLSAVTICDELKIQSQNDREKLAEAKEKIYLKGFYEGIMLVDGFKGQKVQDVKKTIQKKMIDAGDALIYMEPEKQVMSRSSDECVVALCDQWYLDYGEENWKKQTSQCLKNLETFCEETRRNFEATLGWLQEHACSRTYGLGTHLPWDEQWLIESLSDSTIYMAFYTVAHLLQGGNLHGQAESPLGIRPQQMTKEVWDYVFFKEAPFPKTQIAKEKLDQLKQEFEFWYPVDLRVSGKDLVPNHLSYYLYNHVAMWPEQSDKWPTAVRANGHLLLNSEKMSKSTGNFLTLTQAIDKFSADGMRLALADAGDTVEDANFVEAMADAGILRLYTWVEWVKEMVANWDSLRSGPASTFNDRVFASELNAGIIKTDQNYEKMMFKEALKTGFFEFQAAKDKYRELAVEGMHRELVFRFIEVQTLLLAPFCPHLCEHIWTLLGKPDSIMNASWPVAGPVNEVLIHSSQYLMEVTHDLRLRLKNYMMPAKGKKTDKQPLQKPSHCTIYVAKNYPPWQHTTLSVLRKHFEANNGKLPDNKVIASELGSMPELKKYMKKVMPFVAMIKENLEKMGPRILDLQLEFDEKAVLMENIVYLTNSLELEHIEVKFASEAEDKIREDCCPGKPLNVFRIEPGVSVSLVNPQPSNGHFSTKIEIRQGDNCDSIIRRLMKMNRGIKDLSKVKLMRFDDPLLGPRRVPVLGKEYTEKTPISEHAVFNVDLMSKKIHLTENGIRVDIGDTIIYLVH
Procedure: Cells were lysed using a lysis buffer containing a protease inhibitor, and a primary antibody was added to the cell lysate for immunoprecipitation, followed by stirring at 4° C. for 2 hours and allowed to stand. A 50% protein agarose G-Sepharose slurry was added and left for an additional 4 hours. After washing three times with cold lysis buffer, the precipitate was dissolved in SDS sample buffer, separated by SDS-PAGE, and immunoblotted using anti-LRS or anti-RagD antibody.

[3] = tested on: mTORC1; assay: In vivo mTORC1 inhibition, S6K phosphorylation in brain neocortex and hippocampus of C57BL/6 mice; parameters: species or system mouse
Procedure: (§1) The salt of the compound of the Example 1-1 was administered at a dose of 100 mg/kg (in 10% DMAC, 15% Tween 80, 75% 0.1M Na2HPO4, pH9.4), and rapamycin at a dose of 2 mg/kg (in 10% DMAC, 15% Tween 80, 75% saline).
On the other hand, the present inventor attempted to evaluate the mTOR. inhibitory activity by salt concentration of the compound of Example 1-1 based on the above results.

[4] = tested on: autophagy; assay: Autophagy markers (LC3 II increase or p62 cleavage) in TSC2 CKO epilepsy animal model; assay type: in vivo, mouse; conditions: TSC2 CKO mice; rapamycin 3 mg/kg or Example 1-1K 10 mg/kg i.p.; 4 weeks
Procedure: (§2) Animal care was performed according to an animal protocol approved by the Animal Experiment Committee of Seoul National University. TSC2^GFAP1 CKO mice were generated as follows. TSC2^flox/flox mice were first crossed with the same GFAP-Cre mouse line. The resulting TSC2^flox/+; TSC2^flox/flox by crossing GFAP-Cre mice with other TSC2^flox/flox mice; GFAP-Cre mice were generated.
(§3) For western blot analysis, mouse cerebral neocortex and hippocampus were dissected and sonicated in cell lysis buffer (Cell Signaling, Beverly, Mass., USA). After centrifugation at 15,000 rpm at 4° C. for 1 hour. a supernatant was obtained and the protein concentration was measured by the Bradford method (Pierce, Rockford, Ill., USA). An equal amount of total protein extract was separated by SDS-PAGE and transferred to a nitrocellulose membrane. After incubation with anti-p-S6K (T389) (Cell Signaling, #9205), anti-S6K (Cell Signaling, #9202), anti-Actin (Santa Cruz Biotechnology, #sc-1616), anti-p-AKT (S473) (Cell signaling, #4060), anti-AKT (Cell signaling, #2920) anti-p62/SQSTM1 (Cell signaling, #39749) and anti-LC3A (Cell signaling, #4108) antibodies in 1% TTBBS buffer (10 mM Tris, 10% Tris (Tris-HCl, pH 7.5, 150 mM NaCl, 0.05% Tween 20), the membrane was reacted with a peroxidase-conjugated secondary antibody. Signals were detected using an improved chemiluminescent reagent (Pierce, Rockford, Ill., USA).

[5] = molecular target: T1, mTORC2 (Mus musculus (Mouse), UniProt Q9JLN9); assay: mTORC2 activation (p-AKT S473) in TSC2 CKO epilepsy animal model; assay type: in vivo; conditions: TSC2 CKO mice; rapamycin 3 mg/kg or Example 1-1K 10 mg/kg i.p.; 4 weeks
Procedure: as §2, §3

[6] = tested on: B6C3H/APP/PS1 mice; assay: Amyloid plaque removal in Alzheimer's animal model, ThS staining; assay type: in vivo, mouse; conditions: 5, 10 or 20 mg/kg intraperitoneal once daily for 7 days, vs vehicle
From the text: In the experiment, 7 months old male B6C3H/APP/PS1 mice were purchased from Jackson Lab (Bar Harbor, Me., USA) and used. These mouse are all dual transgenic mice expressing chimeric mouse/human amyloid precursor protein and mutant human presenilin 1, both of these are about CNS neurons. Both mutations are associated with early onset Alzheimer's.
The prepared salt (1-4K) of the compound of Example 1-1 was intraperitoneally administered at 0, 5, 10 or 20 mpk (mg/kg) per mouse, once daily for 7 days. As the solvent, 10% DMAC, 15% Tween 80, and 75% 0.1M Na2HPO4 buffer were used.
For immunohistochemical analysis, mice were anesthetized with 2% Avertin (20 μg g^−1, intraperitoneally), perfused with 0.9% saline, and perfused with ice-cold 4% paraformaldehyde. Excised brains of B6C3H/APP/PS1 mice were fixed in 4% paraformaldehyde (pH 7.4) for 16 hours. The fixed brain samples were immersed in 30% sucrose for cryoprotection and sliced to a thickness of 35 μm using a Cryostat (Microm HM 525, Thermo Scientific, Waltham, Mass., USA). To visualize Aβ plaques, sliced brain sections were stained with thioflavin S (ThS) for 7 minutes. […]
Images were taken with a Leica DM2500 fluorescence microscope. Plaque numbers were calculated from a single brain image of each mouse using the ImageJ software program.
Aβ deposition in the brain of APP/PS1 mice can be detected at 6 months of age. […]

[7] = tested on: mTORC1; assay: mTORC1 activity inhibitory effect at 20 μM, phospho-p70 S6 Kinase Western blot in SW620 cells; conditions: leucine-free 1 h 30 min, then leucine 15 min, vs DMSO control
Procedure: In order to evaluate the inhibitory effect of the compounds according to the present invention on the activity of mTORC1, an experiment was performed in the following manner.

[8] = molecular target: T1, mTORC2; assay: In vivo mTORC2 activity, AKT phosphorylation in brain of C57BL/6 mice; conditions: 100 mg/kg intraperitoneal; 7-week-old C57BL/6 male mice
Procedure: as §1

[9] = tested on: autophagy; assay: In vivo autophagy (LC3 II or p62 degradation) in brain of C57BL/6 mice; parameters: species or system mouse; conditions: 100 mg/kg intraperitoneal; 7-week-old C57BL/6 male mice
Procedure: as §1

[10] = tested on: mTORC1; assay: mTORC1 activation (p-S6K T389) in TSC2 CKO epilepsy animal model; assay type: in vivo, mouse; conditions: TSC2 CKO mice; rapamycin 3 mg/kg or Example 1-1K 10 mg/kg i.p.; 4 weeks; vs control
Procedure: as §2
For western blot analysis, mouse cerebral neocortex and hippocampus were dissected and sonicated in cell lysis buffer (Cell Signaling, Beverly, Mass., USA). After centrifugation at 15,000 rpm at 4° C. for 1 hour. a supernatant was obtained and the protein concentration was measured by the Bradford method (Pierce, Rockford, Ill., USA). An equal amount of total protein extract was separated by SDS-PAGE and transferred to a nitrocellulose membrane.

`O=C1NC(=S)S/C1=C\c1cnn(-c2ccccc2)c1` [Example 1-1, (5Z)-5-[(1-phenylpyrazol-4-yl)methylene]-2-thioxo-thiazolidin-4-one] was tested, and the “GTP hydrolysis of RagD” value [1] was “inhibiting the GTP hydrolysis of RagD” and the “interaction between LRS and RagD” value [2] was “directly inhibited”.

`O=C1[N-]C(=S)S/C1=C\c1cnn(-c2ccccc2)c1.[K+]` [Example 1-1K, Potassium Salt of (5Z)-5-[(1-phenylpyrazole-4-yl)methylene]-2-thioxo-thiazolidin-4-one] was tested, and the “GTP hydrolysis of RagD” value [1] was “inhibiting the GTP hydrolysis of RagD”, the “phosphorylation of S6K in the brain, by dose” value ([3]; 0, 1, 2.5, 5, 10, 20 and 50 mg/kg intraperitoneal, C57BL/6 male mice) was “inhibited the phosphorylation of S6K in the brain of the animal in a concentration-dependent manner” and the “phosphorylated S6K in brain neocortex and hippocampus” value ([3]; 100 mg/kg intraperitoneal, 7-week-old C57BL/6 male mice) was “not detected”. The “autophagy (LC3 II increase or p62 cleavage)” value [4] was “induced”, the “mTORC2 activation, p-AKT (S473)” value [5] was “not affected” and the “amyloid plaque deposits (ThS staining) in the brain” value [6] was “significantly reduced”. For the same compound, the “mTORC1 inhibitory effect (%)” value [7] was at least 85%, the “phosphorylation degree of AKT (mTORC2 activity)” value [8] was “not changed” and the “autophagy action (degradation of LC3 II or p62)” value [9] was “increased”. The “mTORC1 activation, p-S6K (T389) in cerebral cortex and hippocampus” value [10] was “reduced” and the “interaction between LRS and RagD” value [2] was “directly inhibited”.

In the case of `Cc1nn(-c2ccccc2)cc1/C=C1\SC(=O)NC1=O` [Example 1-53, (5Z)-5-[(3-methyl-1-phenyl-pyrazol-4-yl)methylene]thiazolidine-2,4-dione], the “mTORC1 inhibitory effect (%)” value [7] is reported as 71.70 ± 1.70%.

`Cc1nn(-c2ccccc2)c(C)c1/C=C1\SC(=O)NC1=O` [Example 1-54, (5Z)-5-[(3,5-dimethyl-1-phenyl-pyrazol-4-yl]methylene]thiazolidine-2,4-dione] was tested, and the “mTORC1 inhibitory effect (%)” value [7] was 71.17 ± 4.46%.

`O=C1NC(=S)S/C1=C\c1ccn(-c2ccc(Cl)cc2)n1` [Example 1-55, (5Z)-5-[[1-(4-chlorophenyl)pyrazol-3-yl]methylene]-2-thioxo-thiazolidin-4-one] was tested, and the “mTORC1 inhibitory effect (%)” value [7] was 74.6 ± 6.5%.

In the case of `O=C1NC(=O)/C(=C/c2ccn(-c3ccccc3)n2)S1` [Example 1-58, (5Z)-5-[[1-phenylpyrazol-3-yl]methylene]thiazolidine-2,4-dione], the “mTORC1 inhibitory effect (%)” value [7] is reported as 59.51 ± 4.35%.

With `O=C1NC(=O)/C(=C/c2ccn(-c3cccnc3)n2)S1` [Example 1-60, (5Z)-5-[[1-(3-pyridyl)pyrazol-3-yl]methylene]thiazolidine-2,4-dione] the “mTORC1 inhibitory effect (%)” value [7] was 81.52 ± 3.79%.

For `CO[C@H]1C[C@@H]2CC[C@@H](C)[C@@](O)(O2)C(=O)C(=O)N2CCCC[C@H]2C(=O)O[C@H]([C@H](C)C[C@@H]2CC[C@@H](O)[C@H](OC)C2)CC(=O)[C@H](C)/C=C(\C)[C@@H](O)[C@@H](OC)C(=O)[C@H](C)C[C@H](C)/C=C/C=C/C=C/1C` [rapamycin, reference compound], the “autophagy (LC3 II increase or p62 cleavage)” value [4] was “induced”, the “mTORC2 activation, p-AKT (S473)” value [5] was “not affected” and the “mTORC1 activation, p-S6K (T389) in cerebral cortex and hippocampus” value [10] was “reduced”.
